In patent US20050089535A1, “Delivery of biologically active agents” (priority 2002, published 2005):

Assay: Use of the Weston needleless injector to evaluate penetration of the cervix (dye track)
Design: species or system human
Conditions: 0.2 ml of 1 mg/ml methylene blue in phosphate buffered saline, Weston needleless injector held against ectocervix, ex vivo cervix from non-pregnant women
Experimental: A Weston needleless injector was loaded with 0.2 ml of dye (1 mg/ml of methylene blue {Sigma} in phosphate buffered saline). Whole human cervix was obtained at hysterectomy from non-pregnant women of reproductive age. The cervix was tested within 30 minutes of removal from the patient. The needleless injector device was held against the ectocervix region. Increased pressure on the needleless injector activated the device. Two injections were performed for each specimen.
The cervix was dissected along the track of the injection (FIG. 2) and the length of the dye track was measured. In four experiments the length of the track was a mean of 6.1 mm (standard error of the mean=1.9 mm). The mean lateral spread (any signs of the blue dye) was 8.8 mm.

mean lateral spread (any signs of the blue dye): 8.8 mm
length of the dye track (mean) (four experiments, SEM 1.9 mm): 6.1 mm
SMILES: CN(C)c1ccc2nc3ccc(=[N+](C)C)cc-3sc2c1 [dye, methylene blue]
